From patent publication US10689377B2 (Mirati Therapeutics, Inc., priority 2017, dated 2020)

Molecular target: KRas G12C (Homo sapiens, UniProt P01116, G12C)
Experiment: Cellular inhibition of KRas G12C measured by Phospho-ERK in NCI-H358 cells
Type: cell-based
Conditions: pERK(Thr202/Tyr204) normalized with GAPDH, NCI-H358 cells, 3 hours; read-out: IC50
Method in brief: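 Readout is pERK(Thr202/Tyr204) immunofluorescence normalized to GAPDH, expressed as percent of DMSO control and fitted with a 4-parameter curve for IC50. Attached NCI-H358 cells received compound for 3 hours in 0.5% DMSO, followed by fixation and methanol permeabilization.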

Chain of KRas G12C (P01116 1-188 isoform P01116-2 G12C): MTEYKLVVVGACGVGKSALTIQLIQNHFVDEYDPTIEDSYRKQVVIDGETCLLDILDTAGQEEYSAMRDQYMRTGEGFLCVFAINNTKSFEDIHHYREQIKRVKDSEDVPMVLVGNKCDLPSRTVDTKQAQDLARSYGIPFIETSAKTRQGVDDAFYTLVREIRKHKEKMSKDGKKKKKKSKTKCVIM

Row | Compound | IC50 [nM]
1 | C/C=C/C(=O)N1CCN(c2nc(OC[C@@H]3CCCN3C)nc3c2CCN(c2cccc4ccccc24)C3)CC1CC#N (stereo partly drawn) [Example 293, 2-[1-[(E)-but-2-enoyl]-4-[2-[[(2S)-1-methylpyrrolidin-2-yl]methoxy]-7-(1-naphthyl)-6,8-dihydro-5H-pyrido[3,4-d]pyrimidin-4-yl]piperazin-2-yl]acetonitrile] | 0.1 to 1000
2 | C=CC(=O)N1CCN(c2nc(OCCN(C)C)nc3c2CCN(c2ccccc2C(F)(F)F)C3)CC1CC#N (stereo not shown) [Example 296, 2-[4-[2-[2-(dimethylamino)ethoxy]-7-[2-(trifluoromethyl)phenyl]-6,8-dihydro-5H-pyrido[3,4-d]pyrimidin-4-yl]-1-prop-2-enoyl-piperazin-2-yl]acetonitrile] | 0.1 to 1000
3 | C=CC(=O)N1CCN(c2nc(OCCCN3C[C@H]4C[C@@H]3CO4)nc3c2CCN(c2ccccc2C(F)(F)F)C3)CC1CC#N (stereo partly drawn) [Example 297, 2-[4-[2-[3-[(1R,4R)-2-oxa-5-azabicyclo[2.2.1]heptan-5-yl]propoxy]-7-[2-(trifluoromethyl)phenyl]-6,8-dihydro-5H-pyrido[3,4-d]pyrimidin-4-yl]-1-prop-2-enoyl-piperazin-2-yl]acetonitrile] | 0.1 to 1000
4 | C=CC(=O)N1CCN(c2nc(OC[C@@H]3CCN(C)C3)nc3c2CCN(c2ccccc2C(F)(F)F)C3)CC1CC#N (stereo partly drawn) [Example 298, 2-(1-acryloyl-4-(2-(((R)-1-methylpyrrolidin-3-yl)methoxy)-7-(2-(trifluoromethyl)phenyl)-5,6,7,8-tetrahydropyrido[3,4-d]pyrimidin-4-yl)piperazin-2-yl)acetonitrile] | 0.1 to 1000
5 | C=CC(=O)N1CCN(c2nc(OC[C@H]3CCCN3C)nc3c2CCN(c2ccccc2C(F)(F)F)C3)CC1CC#N (stereo partly drawn) [Example 299, 2-[4-[2-[[(2R)-1-methylpyrrolidin-2-yl]methoxy]-7-[2-(trifluoromethyl)phenyl]-6,8-dihydro-5H-pyrido[3,4-d]pyrimidin-4-yl]-1-prop-2-enoyl-piperazin-2-yl]acetonitrile] | 0.1 to 1000

Other lines, results leading:

Row | IC50 [nM] | Compound
6 | 0.1 to 1000 | C=CC(=O)N1CCN(c2nc(OC[C@@H]3CCCN3C)nc3c2CCN(c2cccc4cc(F)ccc24)C3)CC1CC#N (stereo partly drawn) [Example 290, 2-[4-[7-(6-fluoro-1-naphthyl)-2-[[(2S)-1-methylpyrrolidin-2-yl]methoxy]-6,8-dihydro-5H-pyrido[3,4-d]pyrimidin-4-yl]-1-prop-2-enoyl-piperazin-2-yl]acetonitrile]
7 | 0.1 to 1000 | C=CC(=O)N1CCN(c2nc(OC[C@@H]3CCCN3C)nc3c2CCN(c2cncc4ccccc24)C3)CC1CC#N (stereo partly drawn) [Example 291, 2-[4-[7-(4-isoquinolyl)-2-[[(2S)-1-methylpyrrolidin-2-yl]methoxy]-6,8-dihydro-5H-pyrido[3,4-d]pyrimidin-4-yl]-1-prop-2-enoyl-piperazin-2-yl]acetonitrile]
8 | > 1000 | C=CC(=O)N1CCN(c2nc(OC[C@@H]3CCCN3C)nc3c2CCN(c2cccc4cnccc24)C3)CC1CC#N (stereo partly drawn) [Example 292, 2-[4-[7-(5-isoquinolyl)-2-[[(2S)-1-methylpyrrolidin-2-yl]methoxy]-6,8-dihydro-5H-pyrido[3,4-d]pyrimidin-4-yl]-1-prop-2-enoyl-piperazin-2-yl]acetonitrile]
9 | > 1000 | C=CC(=O)N1CCN(c2nc(OC[C@@H]3CCCN3C)nc3c2CCN(c2cccc4ncccc24)C3)CC1CC#N (stereo partly drawn) [Example 294, 2-[4-[2-[[(2S)-1-methylpyrrolidin-2-yl]methoxy]-7-(5-quinolyl)-6,8-dihydro-5H-pyrido[3,4-d]pyrimidin-4-yl]-1-prop-2-enoyl-piperazin-2-yl]acetonitrile]
10 | > 1000 | C=CC(=O)N1CCN(c2nc(OC[C@@H]3CCCN3C)nc3c2CCN(c2ccnc4ccccc24)C3)CC1CC#N (stereo partly drawn) [Example 295, 2-[4-[2-[[(2S)-1-methylpyrrolidin-2-yl]methoxy]-7-(4-quinolyl)-6,8-dihydro-5H-pyrido[3,4-d]pyrimidin-4-yl]-1-prop-2-enoyl-piperazin-2-yl]acetonitrile]
